Test results from the NIST ThermoML archive (doi:10.1016/j.jct.2016.02.009).
Numbers after ± are expanded uncertainties.

Experiments:
[1] = Molar enthalpy of transition or fusion; conditions: Crystal 1; Adiabatic calorimetry
[2] = for molar entropy: 101.33 kPa, Small (less than 1 g) adiabatic calorimetry; for Triple point temperature: Adiabatic calorimetry; for vapor or sublimation pressure: Calculated from knudsen effusion weight loss

CCCCCCCCCCn1cc[n+](C)c1.O=S(=O)([N-]S(=O)(=O)C(F)(F)F)C(F)(F)F
Conditions	Molar enthalpy of transition or fusion [kcal/mol]
[1]	6.852 ± 0.0311

[2]
Conditions	molar entropy [J/K/mol]
5 K, Crystal 2	1.18 ± 0.06
10 K, Crystal 2	7.33 ± 0.25
15 K, Crystal 2	17.93 ± 0.49
20 K, Crystal 2	31.5 ± 0.68
25 K, Crystal 2	46.8 ± 0.81
30 K, Crystal 2	63.01 ± 0.83
35 K, Crystal 2	79.61 ± 0.97
40 K, Crystal 2	96.26 ± 1.1
50 K, Crystal 2	129.2 ± 1.3
60 K, Crystal 2	161.4 ± 1.7
70 K, Crystal 2	192.7 ± 1.9
80 K, Crystal 2	222.8 ± 2.1
90 K, Crystal 2	252 ± 2.2
100 K, Crystal 2	280.3 ± 2.4
110 K, Crystal 2	307.8 ± 2.7
120 K, Crystal 2	334.4 ± 2.9
130 K, Crystal 2	360.4 ± 3.1
140 K, Crystal 2	385.8 ± 3.3
150 K, Crystal 2	410.5 ± 3.5
160 K, Crystal 2	434.8 ± 3.6
170 K, Crystal 2	458.6 ± 3.8
180 K, Crystal 2	482.1 ± 4
190 K, Crystal 2	505.4 ± 4.1
200 K, Crystal 2	528.6 ± 4.2
210 K, Crystal 2	551.8 ± 4.4
220 K, Crystal 2	575.2 ± 4.6
230 K, Crystal 2	599.3 ± 4.8
240 K, Crystal 2	625.2 ± 5
249 K, Crystal 1	653.6 ± 5.2
249 K, Crystal 2	653.6 ± 5.2
252 K, Crystal 1	662.4 ± 5.3
260 K, Crystal 1	682.3 ± 5.5
270 K, Crystal 1	707.5 ± 5.7
277.33 K, Crystal 1	726.3 ± 5.7
277.33 K, Liquid	829.8 ± 6.4
280 K, Liquid	836.9 ± 6.6
290 K, Liquid	863.1 ± 6.8
298.15 K, Liquid	883.9 ± 6.9
300 K, Liquid	888.6 ± 7
310 K, Liquid	913.5 ± 7.1
320 K, Liquid	937.9 ± 7.3
330 K, Liquid	961.7 ± 7.5
340 K, Liquid	985.1 ± 7.7
350 K, Liquid	1008 ± 8
360 K, Liquid	1031 ± 8
370 K, Liquid	1053 ± 8

[2]
Conditions	Triple point temperature [K]
Crystal 1	277.33 ± 0.05
Crystal 2	249 ± 1

CCCCCCCCCCCCCCCCn1cc[n+](C)c1.O=S(=O)([N-]S(=O)(=O)C(F)(F)F)C(F)(F)F
Conditions	Molar enthalpy of transition or fusion [kcal/mol]
[1]	12.26 ± 0.0574

[2]
Conditions	molar entropy [J/K/mol]	vapor or sublimation pressure [kPa]
5 K, Crystal 2	1.23 ± 0.06	–
10 K, Crystal 2	7.81 ± 0.26	–
15 K, Crystal 2	19.15 ± 0.51	–
20 K, Crystal 2	33.76 ± 0.72	–
25 K, Crystal 2	50.4 ± 0.87	–
30 K, Crystal 2	68.27 ± 0.9	–
35 K, Crystal 2	86.83 ± 1	–
40 K, Crystal 2	105.7 ± 1.2	–
45 K, Crystal 2	124.7 ± 1.3	–
50 K, Crystal 2	143.7 ± 1.5	–
60 K, Crystal 2	181.5 ± 1.8	–
70 K, Crystal 2	218.5 ± 2.1	–
80 K, Crystal 2	254.6 ± 2.4	–
90 K, Crystal 2	289.6 ± 2.5	–
100 K, Crystal 2	323.6 ± 2.8	–
110 K, Crystal 2	356.7 ± 3.1	–
120 K, Crystal 2	388.9 ± 3.3	–
130 K, Crystal 2	420.2 ± 3.5	–
140 K, Crystal 2	450.7 ± 3.7	–
150 K, Crystal 2	480.4 ± 4	–
160 K, Crystal 2	509.6 ± 4.2	–
170 K, Crystal 2	538.1 ± 4.4	–
180 K, Crystal 2	566.1 ± 4.6	–
190 K, Crystal 2	593.7 ± 4.8	–
200 K, Crystal 2	621 ± 5	–
210 K, Crystal 2	647.9 ± 5.1	–
220 K, Crystal 2	674.5 ± 5.3	–
230 K, Crystal 2	701.1 ± 5.5	–
240 K, Crystal 2	727.5 ± 5.7	–
250 K, Crystal 2	754.1 ± 6	–
260 K, Crystal 2	780.8 ± 6.2	–
270 K, Crystal 2	808.1 ± 6.4	–
280 K, Crystal 2	836.2 ± 6.6	–
290 K, Crystal 2	866.1 ± 6.8	–
298.15 K, Crystal 2	893.4 ± 7	–
300 K, Crystal 2	900.3 ± 7	–
305.5 K, Crystal 1	922.5 ± 7.2	–
305.5 K, Crystal 2	922.5 ± 7.2	–
310 K, Crystal 1	941 ± 7.3	–
319.25 K, Crystal 1	971.3 ± 7.5	–
319.25 K, Liquid	1132 ± 9	–
320 K, Liquid	1134 ± 9	–
330 K, Liquid	1164 ± 9	–
340 K, Liquid	1194 ± 9	–
350 K, Liquid	1222 ± 9	–
360 K, Liquid	1251 ± 9	–
370 K, Liquid	1279 ± 9	–
508.07 K, Liquid	–	3.21e-05 ± 2e-06
513.07 K, Liquid	–	4.5e-05 ± 2.8e-06
518.07 K, Liquid	–	6.31e-05 ± 3.9e-06
523.07 K, Liquid	–	8.75e-05 ± 5.4e-06
528.06 K, Liquid	–	0.0001197 ± 7.3e-06
533.07 K, Liquid	–	0.0001644 ± 1e-05

[2]
Conditions	Triple point temperature [K]
Crystal 1	319.25 ± 0.05
Crystal 2	305.5 ± 0.5

CCCCCCCCCCCCCCn1cc[n+](C)c1.O=S(=O)([N-]S(=O)(=O)C(F)(F)F)C(F)(F)F
Conditions	Molar enthalpy of transition or fusion [kcal/mol]
[1]	10.8 ± 0.0239

[2]
Conditions	molar entropy [J/K/mol]	vapor or sublimation pressure [kPa]
5 K, Crystal 2	1.17 ± 0.06	–
10 K, Crystal 2	7.53 ± 0.25	–
15 K, Crystal 2	18.57 ± 0.5	–
20 K, Crystal 2	32.77 ± 0.7	–
25 K, Crystal 2	48.94 ± 0.84	–
30 K, Crystal 2	66.22 ± 0.87	–
35 K, Crystal 2	84.11 ± 1	–
40 K, Crystal 2	102.3 ± 1.1	–
45 K, Crystal 2	120.5 ± 1.3	–
50 K, Crystal 2	138.7 ± 1.5	–
60 K, Crystal 2	174.7 ± 1.7	–
70 K, Crystal 2	209.8 ± 2.1	–
80 K, Crystal 2	244 ± 2.3	–
90 K, Crystal 2	277.1 ± 2.4	–
100 K, Crystal 2	309.3 ± 2.7	–
110 K, Crystal 2	340.5 ± 2.9	–
120 K, Crystal 2	370.8 ± 3.1	–
130 K, Crystal 2	400.3 ± 3.3	–
140 K, Crystal 2	429.1 ± 3.5	–
150 K, Crystal 2	457.2 ± 3.8	–
160 K, Crystal 2	484.6 ± 4	–
170 K, Crystal 2	511.6 ± 4.2	–
180 K, Crystal 2	538.1 ± 4.4	–
190 K, Crystal 2	564.2 ± 4.6	–
200 K, Crystal 2	589.9 ± 4.8	–
210 K, Crystal 2	615.5 ± 4.9	–
220 K, Crystal 2	640.8 ± 5.1	–
230 K, Crystal 2	666 ± 5.3	–
240 K, Crystal 2	691.3 ± 5.5	–
250 K, Crystal 2	716.7 ± 5.7	–
260 K, Crystal 2	742.5 ± 5.9	–
270 K, Crystal 2	769.1 ± 6	–
280 K, Crystal 2	797.3 ± 6.2	–
290 K, Crystal 2	829.7 ± 6.4	–
295.5 K, Crystal 1	850.6 ± 6.6	–
295.5 K, Crystal 2	850.6 ± 6.6	–
298.15 K, Crystal 1	860.5 ± 6.8	–
300 K, Crystal 1	866 ± 6.8	–
308.77 K, Crystal 1	891.2 ± 7	–
308.77 K, Liquid	1037 ± 8	–
310 K, Liquid	1041 ± 8	–
320 K, Liquid	1070 ± 9	–
330 K, Liquid	1098 ± 9	–
340 K, Liquid	1125 ± 9	–
350 K, Liquid	1152 ± 9	–
360 K, Liquid	1179 ± 9	–
370 K, Liquid	1205 ± 9	–
498.07 K, Liquid	–	2.76e-05 ± 1.7e-06
503.06 K, Liquid	–	3.85e-05 ± 2.4e-06
508.05 K, Liquid	–	5.39e-05 ± 3.3e-06
513.05 K, Liquid	–	7.45e-05 ± 4.6e-06
518.04 K, Liquid	–	0.0001018 ± 6.2e-06
523.05 K, Liquid	–	0.0001397 ± 8.6e-06
528.05 K, Liquid	–	0.0001898 ± 1.2e-05

[2]
Conditions	Triple point temperature [K]
Crystal 1	308.77 ± 0.05
Crystal 2	295.5 ± 0.4
